# Data reported in ChEMBL document CHEMBL1201862, “PubChem BioAssay data set” (2004).
#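 96-well plates; 48 h exposure; 5 concentrations. Endpoints by linear interpolation between flanking doses. Not reached: highest tested concentration assigned. GI50 marks 50% less growth.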 Activity calls are given as the source filed them. Cut-off read from the data, not from the text of the source: active = GI50 up to about 1.1 µM and inactive = higher. Where a SMILES comes first, the peptide text is derived from it. [ ]: non-standard residue; d: D form. Phe(4-NO2) = N[CH](Cc1ccc([N+](=O)[O-])cc1)C(=O)O
# Experiments:
# Assay in all cases: NCI anticancer screen, dose series, 48 h
# EKVX = tested on: EKVX
# SNB-19 = tested on: SNB-19
# NCI-H522 = tested on: NCI-H522
# 786-0 = tested on: 786-0
# NCI/ADR-RES = tested on: NCI/ADR-RES
# MCF7 = tested on: MCF7
# OVCAR-5 = tested on: OVCAR-5
# SR = tested on: SR
# OVCAR-4 = tested on: OVCAR-4
# U-251 = tested on: U-251
# MDA-MB-231 = tested on: MDA-MB-231
# IGROV-1 = tested on: IGROV-1
# UACC-257 = tested on: UACC-257
# BT-549 = tested on: BT-549
# UO-31 = tested on: UO-31
# ACHN = tested on: ACHN
# LOX IMVI = tested on: LOX IMVI
# PC-3 = tested on: PC-3
# SK-MEL-28 = tested on: SK-MEL-28
# Malme-3M = tested on: Malme-3M
SMILES,GI50 (EKVX),GI50 (SNB-19),GI50 (NCI-H522),GI50 (786-0),GI50 (NCI/ADR-RES),GI50 (MCF7),GI50 (OVCAR-5),GI50 (SR),GI50 (OVCAR-4),GI50 (U-251),GI50 (MDA-MB-231),GI50 (IGROV-1),GI50 (UACC-257),GI50 (BT-549),GI50 (UO-31),GI50 (ACHN),GI50 (LOX IMVI),GI50 (PC-3),GI50 (SK-MEL-28),GI50 (Malme-3M)
CSc1ncc2c(C#N)c3[nH]c4ccccc4n3c(=O)c2n1,33.9 µM (inactive),16.9 µM (inactive),7.52 µM (inactive),31.7 µM (inactive),4.89 µM (inactive),19.7 µM (inactive),55.1 µM (inactive),9.89 µM (inactive),6.84 µM (inactive),15.8 µM (inactive),26.6 µM (inactive),18.1 µM (inactive),30.7 µM (inactive),20.6 µM (inactive),8.13 µM (inactive),33.1 µM (inactive),21.7 µM (inactive),5.83 µM (inactive),–,–
CCSC1SC(c2ccccc2)(c2ccccc2)c2ccccc21 (stereo not given),51.3 µM (inactive),> 100 µM (inactive),43.5 µM (inactive),43.4 µM (inactive),43.2 µM (inactive),33.7 µM (inactive),45.4 µM (inactive),–,55.1 µM (inactive),92.3 µM (inactive),73.1 µM (inactive),75.3 µM (inactive),26.4 µM (inactive),39.8 µM (inactive),47.5 µM (inactive),44.7 µM (inactive),45.1 µM (inactive),39.4 µM (inactive),79.8 µM (inactive),34.1 µM (inactive)
C/C(=N\NS(=O)(=O)c1ccc(C)cc1)c1ccccn1,35.5 µM (inactive),74.8 µM (inactive),–,45.3 µM (inactive),38 µM (inactive),53.8 µM (inactive),> 100 µM (inactive),65 µM (inactive),68.2 µM (inactive),88.5 µM (inactive),> 100 µM (inactive),47.2 µM (inactive),81.8 µM (inactive),> 100 µM (inactive),40.5 µM (inactive),26.1 µM (inactive),55.6 µM (inactive),84.3 µM (inactive),98.2 µM (inactive),60.3 µM (inactive)
Cc1cc(C)cc(Nc2nnc3n2S(=O)(=O)c2cc(C#N)c(Cl)cc2S3)c1,8.67 µM (inactive),6.78 µM (inactive),1.87 µM (inactive),2.22 µM (inactive),2.44 µM (inactive),1.87 µM (inactive),2.83 µM (inactive),0.507 µM (active),7.98 µM (inactive),1.96 µM (inactive),3.13 µM (inactive),0.505 µM (active),1.44 µM (inactive),2.16 µM (inactive),4.86 µM (inactive),3.08 µM (inactive),2.89 µM (inactive),–,3.21 µM (inactive),1.13 µM (inactive)
C[C@]12CC/C(=N\OCCN3CCCC3)C=C1CCC1C2CC[C@@]2(C)C1CC[C@]2(C)O (stereo not given in full),6.93 µM (inactive),14.7 µM (inactive),3.12 µM (inactive),4.43 µM (inactive),3.6 µM (inactive),5.37 µM (inactive),33.3 µM (inactive),–,16.1 µM (inactive),7.11 µM (inactive),16.6 µM (inactive),8.95 µM (inactive),5.6 µM (inactive),10.2 µM (inactive),11.7 µM (inactive),11.1 µM (inactive),4.33 µM (inactive),7.29 µM (inactive),–,5.21 µM (inactive)
O=C(O)CCC1COc2ccccc2O1 (stereo not given),> 10 µM (inactive),> 10 µM (inactive),> 10 µM (inactive),> 10 µM (inactive),> 10 µM (inactive),> 10 µM (inactive),> 10 µM (inactive),–,> 10 µM (inactive),> 10 µM (inactive),> 10 µM (inactive),> 10 µM (inactive),> 10 µM (inactive),> 10 µM (inactive),> 10 µM (inactive),> 10 µM (inactive),> 10 µM (inactive),> 10 µM (inactive),> 10 µM (inactive),> 10 µM (inactive)
O=C1/C(=C\c2ccccc2)CN(C(=O)CCN2CCCCC2)C/C1=C/c1ccccc1,3.71 µM (inactive),1.84 µM (inactive),0.757 µM (active),1.3 µM (inactive),–,0.415 µM (active),1.72 µM (inactive),0.315 µM (active),1.73 µM (inactive),0.632 µM (active),1.48 µM (inactive),1.95 µM (inactive),1.76 µM (inactive),0.553 µM (active),1.91 µM (inactive),1.95 µM (inactive),0.283 µM (active),1.24 µM (inactive),1.97 µM (inactive),2.25 µM (inactive)
O=C1NC2=NOC(=O)NC2=NO1,> 200 µM (inactive),> 200 µM (inactive),> 200 µM (inactive),> 200 µM (inactive),> 200 µM (inactive),> 200 µM (inactive),> 200 µM (inactive),–,> 200 µM (inactive),> 200 µM (inactive),> 200 µM (inactive),> 200 µM (inactive),> 200 µM (inactive),> 200 µM (inactive),> 200 µM (inactive),> 200 µM (inactive),> 200 µM (inactive),> 200 µM (inactive),> 200 µM (inactive),> 200 µM (inactive)
C[C@]12CC[C@@H]3c4cc(C=O)c(OCc5ccccc5)cc4CC[C@H]3[C@@H]1CCC2OCc1ccccc1 (stereo not given in full),> 100 µM (inactive),–,80 µM (inactive),> 100 µM (inactive),> 100 µM (inactive),> 100 µM (inactive),> 100 µM (inactive),73.1 µM (inactive),> 100 µM (inactive),> 100 µM (inactive),> 100 µM (inactive),–,58.9 µM (inactive),> 100 µM (inactive),> 100 µM (inactive),95.9 µM (inactive),> 100 µM (inactive),56.6 µM (inactive),> 100 µM (inactive),–
COC(=O)C1(N2CCOCC2)CCC([C@@H](c2ccccc2)C(C)[N+](=O)[O-])C1 (stereo not given in full),> 100 µM (inactive),> 100 µM (inactive),–,75.9 µM (inactive),> 100 µM (inactive),21.9 µM (inactive),> 100 µM (inactive),20.8 µM (inactive),55.5 µM (inactive),> 100 µM (inactive),> 100 µM (inactive),–,28 µM (inactive),16.8 µM (inactive),> 100 µM (inactive),> 100 µM (inactive),39 µM (inactive),> 100 µM (inactive),> 100 µM (inactive),> 100 µM (inactive)
c1ccc(Sc2nc(Sc3ccccc3)nc(Sc3ccccc3)n2)cc1,35 µM (inactive),31.8 µM (inactive),97.1 µM (inactive),–,–,26.5 µM (inactive),58.7 µM (inactive),> 100 µM (inactive),55 µM (inactive),19.4 µM (inactive),> 100 µM (inactive),–,30.3 µM (inactive),> 100 µM (inactive),57 µM (inactive),29.8 µM (inactive),> 100 µM (inactive),7.11 µM (inactive),43.7 µM (inactive),> 100 µM (inactive)
c1ccc(P(CCP(c2ccccn2)c2ccccn2)c2ccccc2)cc1,0.689 µM (active),0.498 µM (active),0.0314 µM (active),11.9 µM (inactive),> 100 µM (inactive),0.0261 µM (active),> 75.9 µM (inactive),19.4 µM (inactive),50.7 µM (inactive),0.0578 µM (active),–,< 0.01 µM (active),< 0.0185 µM (active),32.9 µM (inactive),33.3 µM (inactive),23.3 µM (inactive),0.038 µM (active),0.0281 µM (active),64 µM (inactive),25.2 µM (inactive)
CC(NC(=O)C(Cc1ccc([N+](=O)[O-])cc1)NC(=O)C(N)CCCCN)C(=O)NC(Cc1ccc([N+](=O)[O-])cc1)C(N)=O (stereo not given) (H-K[Phe(4-NO2)]A[Phe(4-NO2)]-NH2; configuration not given here),> 71.4 µM (inactive),> 85.3 µM (inactive),> 30.5 µM (inactive),21.9 µM (inactive),69 µM (inactive),> 40.7 µM (inactive),> 100 µM (inactive),–,> 38.6 µM (inactive),> 42.2 µM (inactive),39.6 µM (inactive),26.2 µM (inactive),> 68.2 µM (inactive),27.6 µM (inactive),44.4 µM (inactive),32.8 µM (inactive),> 100 µM (inactive),32.5 µM (inactive),75.7 µM (inactive),50.8 µM (inactive)
COC(=O)C(=O)C(C(=O)C(=O)Nc1ccc(Cl)cc1Cl)c1nc2ccc(Cl)cc2nc1O (stereo not given),17.1 µM (inactive),> 100 µM (inactive),> 100 µM (inactive),> 100 µM (inactive),> 100 µM (inactive),> 100 µM (inactive),> 100 µM (inactive),–,> 100 µM (inactive),> 100 µM (inactive),> 100 µM (inactive),58.7 µM (inactive),> 100 µM (inactive),> 100 µM (inactive),28.4 µM (inactive),> 100 µM (inactive),> 100 µM (inactive),> 100 µM (inactive),> 100 µM (inactive),–
O=C1CC(CC(O)C(O)CO)CC(=O)N1 (stereo not given),> 100 µM (inactive),> 100 µM (inactive),> 100 µM (inactive),> 100 µM (inactive),> 100 µM (inactive),> 100 µM (inactive),–,–,–,> 100 µM (inactive),> 100 µM (inactive),> 100 µM (inactive),> 100 µM (inactive),> 100 µM (inactive),> 100 µM (inactive),> 100 µM (inactive),> 100 µM (inactive),> 100 µM (inactive),> 100 µM (inactive),> 100 µM (inactive)
